This assay concerns clot lysis (fibrinolysis) in diluted human citrated plasma, tPA-induced. Put plainly: Plasma-based clot lysis assay (5%). The class given is biochemical. The note with it: human citrated platelet-poor plasma 5%, fibrinogen 3 μM, CaCl2 10 mM, tPA 0.2 nM, 37° C., OD at 405 nm. The gist of the method: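 Compounds added to 5% platelet-poor citrated human plasma with 3 μM fibrinogen in 20 mM HEPES, 150 mM NaCl, 0.01% Brij, pH 7. Clotting and lysis started with 10 mM CaCl2 and 0.2 nM tPA at 37° C. IC50 derived by comparing time courses with a blank control reaction.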

Structures can show the parent of a compound that is named as a salt.

The compound `CC(C)(C)C[C@@H]1C[C@H](c2cc(=O)[nH]c3c(-c4nc(-c5ccccc5F)no4)cnn23)CCN1` [Example 349, 7-[(2S,4R)-2-(2,2-dimethylpropyl)piperidin-4-yl]-3-[3-(2-fluorophenyl)-1,2,4-oxadiazol-5-yl]pyrazolo[1,5-a]pyrimidin-5(4H)-one hydrochloride] yielded an IC50 of 0.021 µM. This lies in the double-digit nanomolar range. `Cc1nn2c(C3CCNCC3)cc(=O)[nH]c2c1-c1nc(C2CCCCC2)no1` [Example 350, 3-(3-cyclohexyl-1,2,4-oxadiazol-5-yl)-2-methyl-7-(piperidin-4-yl)pyrazolo[1,5-a]pyrimidin-5(4H)-one hydrochloride] registered an IC50 of 0.02 µM.

With `O=c1cc(C2CCNCC2)n2ncc(-c3nc(C(F)(F)F)cs3)c2[nH]1` [Example 351, 7-(piperidin-4-yl)-3-[4-(trifluoromethyl)-1,3-thiazol-2-yl]pyrazolo[1,5-a]pyrimidin-5 (4H)-one hydrochloride], the IC50 turned out to be 0.026 µM. As for `O=C(OCCCF)c1cnn2c(C3CCNCC3)cc(=O)[nH]c12` [Example 352, 3-fluoropropyl 5-oxo-7-(piperidin-4-yl)-4,5-dihydropyrazolo[1,5-a]pyrimidine-3-carboxylate hydrochloride], the figure is 0.044 µM; as for `O=C(OCC(F)F)c1cnn2c(C3CCNCC3)cc(=O)[nH]c12` [Example 353, 2,2-difluoroethyl 5-oxo-7-(piperidin-4-yl)-4,5-dihydropyrazolo[1,5-a]pyrimidine-3-carboxylate hydrochloride], 0.028 µM; as for `O=C(OCC(F)(F)F)c1cnn2c(C3CCNCC3)cc(=O)[nH]c12` [Example 354, 2,2,2-trifluoroethyl 5-oxo-7-(piperidin-4-yl)-4,5-dihydropyrazolo[1,5-a]pyrimidine-3-carboxylate hydrochloride], 0.027 µM. Consider `O=C(OCCC(F)(F)F)c1cnn2c(C3CCNCC3)cc(=O)[nH]c12` [Example 355, 3,3,3-trifluoropropyl 5-oxo-7-(piperidin-4-yl)-4,5-dihydropyrazolo[1,5-a]pyrimidine-3-carboxylate hydrochloride], for which half-maximal inhibition (IC50) was put at 0.027 µM. In other words, the double-digit nanomolar range. `O=C(OC1CCC1)c1cnn2c(C3CCNCC3)cc(=O)[nH]c12` [Example 356, Cyclobutyl 5-oxo-7-(piperidin-4-yl)-4,5-dihydropyrazolo[1,5-a]pyrimidine-3-carboxylate hydrochloride] had an IC50 of 0.023 µM. This IC50 and that of the compound before are within 1.5-fold of each other. For `COC(=O)c1cnn2c(C3CCNCC3)cc(=O)[nH]c12` [Example 357, Methyl 5-oxo-7-(piperidin-4-yl)-4,5-dihydropyrazolo[1,5-a]pyrimidine-3-carboxylate hydrochloride], the IC50 was found to be 0.014 µM.

Turning to `O=C(c1cnn2c(C3CCNCC3)cc(=O)[nH]c12)N1CCC12CCOCC2` [Example 359, 3-(7-oxa-1-azaspiro[3.5]non-1-ylcarbonyl)-7-(piperidin-4-yl)pyrazolo[1,5-a]pyrimidin-5(4H)-one trifluoroacetate], half-maximal inhibition (IC50) required 0.12 µM.

`C[C@@H](c1ccccc1)N(C)C(=O)c1cnn2c(C3CCNCC3)cc(=O)[nH]c12` [Example 360, N-methyl-5-oxo-N-[(1S)-1-phenylethyl]-7-(piperidin-4-yl)-4,5-dihydropyrazolo[1,5-a]pyrimidine-3-carboxamide hydrochloride]: inhibition was half-maximal at 0.052 µM (IC50). `CN(Cc1ccccn1)C(=O)c1cnn2c(C3CCNCC3)cc(=O)[nH]c12` [Example 361, N-methyl-5-oxo-7-(piperidin-4-yl)-N-(pyridin-2-ylmethyl)-4,5-dihydropyrazolo[1,5-a]pyrimidine-3-carboxamide hydrochloride]: the IC50 was determined as 0.032 µM. The same measure for `CCCOC(=O)c1c(C)nn2c(C3CCNCC3)cc(=O)[nH]c12` [Example 365, Propyl 2-methyl-5-oxo-7-(piperidin-4-yl)-4,5-dihydropyrazolo[1,5-a]pyrimidine-3-carboxylate hydrochloride]: 0.038 µM.

A word on the IC50: it is the concentration that inhibits the measured activity by half. Low values mean greater potency in that assay, high ones weaker potency in that assay.

For the origin of these results see patent US10118930B2, “Piperidinylpyrazolopyrimidinones and their use” (BAYER PHARMA AKTIENGESELLSCHAFT, priority 2015, dated 2018).
